Here are results for 5 molecules from PMC11474975, “Enzyme Dynamics Determine the Potency and Selectivity of Inhibitors Targeting Disease-Transmitting Mosquitoes” (ACS Infectious Diseases, 2024).

In experiment [1] the test system is AChE1 from Anopheles gambiae (AgAChE1). Particulars: taken from previous publications; cited from earlier work.
Experiment [2] shares this test system. Nature of the experiment: AgAChE1 inhibition, IC50 (Ellman assay). Particulars: class from experimental IC50. Format: biochemical.
The target in experiment [3] is T1, mAChE (Mus musculus, UniProt P21836).
T1 sequence (P21836 32-614): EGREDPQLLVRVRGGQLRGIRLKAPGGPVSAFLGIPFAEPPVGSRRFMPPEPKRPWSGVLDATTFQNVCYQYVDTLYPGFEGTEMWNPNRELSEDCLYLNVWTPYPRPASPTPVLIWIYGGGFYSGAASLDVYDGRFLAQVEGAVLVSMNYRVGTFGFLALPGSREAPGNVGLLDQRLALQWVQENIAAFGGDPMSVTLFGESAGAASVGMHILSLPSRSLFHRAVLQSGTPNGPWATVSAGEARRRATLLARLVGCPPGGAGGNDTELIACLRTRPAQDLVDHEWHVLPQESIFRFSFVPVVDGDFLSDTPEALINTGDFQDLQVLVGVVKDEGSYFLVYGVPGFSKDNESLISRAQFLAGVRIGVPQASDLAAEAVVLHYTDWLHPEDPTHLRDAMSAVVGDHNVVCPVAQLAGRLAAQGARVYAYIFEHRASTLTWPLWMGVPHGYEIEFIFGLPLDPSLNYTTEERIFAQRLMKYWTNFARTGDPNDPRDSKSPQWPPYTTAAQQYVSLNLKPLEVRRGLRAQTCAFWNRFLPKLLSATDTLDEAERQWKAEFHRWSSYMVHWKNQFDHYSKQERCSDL
Nature of the experiment: mAChE inhibition, IC50 (Ellman assay). The note with it: for S.R. (selectivity ratio) mAChE vs AgAChE1: IC50 mAChE / IC50 AgAChE1; for mAChE inhibitor class (Strong/Weak): class from experimental IC50.
Procedure: Dilution series of eight concentrations were prepared (0.001–1000 and 0.1–1000 μM, respectively). Enzymatic activity was measured using the Ellman assay (adapted to a 96-well format) with secreted nonpurified protein in growth medium. A QIAgility robotic benchtop instrument (Qiagen) was used for automatic liquid handling when setting up assay plates. The assay was then performed at 30 °C in a final volume of 200 mL 0.1 M phosphate buffer (pH 7.4) containing 0.2 mM 5,5′-thiobis(2-nitrobenzoic acid) and 1 mM acetylcholine iodide. Changes in the wells’ absorbance at 412 nm were recorded over 60 s using a FlexStation 3 Multi-Mode Microplate Reader (Molecular Devices) to monitor the enzymatic reaction. Eight positive controls of uninhibited enzyme were assumed to represent 100% activity and used to determine the average slope. […] Nonlinear regression (curve fitting) in GraphPad Prism[54] was used to calculate IC50 values. The log[inhibitor] vs response variable slope equation was fitted using three parameters. Three independent replicates were used for the IC50 determination.

Experiment [4] concerns hAChE. Nature of the experiment: hAChE inhibition, IC50. Format: biochemical, Homo sapiens.
The test system of experiment [5] is hAChE. Particulars: taken from previous publications; cited from earlier work.
For experiment [6], the target named is T1, mAChE. More on the design: made in house; method as in PMID 30339371, PMID 27598521, PMID 22140425. The note with it: taken from previous publications; cited from earlier work.

Read-outs that look alike come from different tables or passages of the source.

Turning to `O=C(COc1ccc(Cl)cc1Cl)Nc1ccc(CN2CCCCC2)cc1` [AL137], the IC50 in experiment [1] is 0.26 µM. Further, the “AgAChE1 inhibitor class (Strong/Weak)” value in experiment [2] was “Strong (strong and weak inhibitors of AgAChE1 from both classes (IC50 < 1 μM and IC50 > 5 μM, respectively)”.

With `COc1ccc(NC(=S)NCCN2CCC(C)CC2)cc1Cl` [AL201], the IC50 is 26 µM on mAChE [3], 12 µM in the experiment with hAChE [5] and 0.96 µM in experiment [1]. Moreover, the “S.R. (selectivity ratio) mAChE vs AgAChE1” value on mAChE [3] was 27. Besides, the “mAChE inhibitor class (Strong/Weak)” value on mAChE [3] is “Weak (strong and weak inhibitors of AgAChE1 from both classes (IC50 < 1 μM and IC50 > 5 μM, respectively)”. For the same molecule, the “S.R. (selectivity ratio) hAChE vs AgAChE1” value in the experiment with hAChE [4] is 13. Besides, the “AgAChE1 inhibitor class (Strong/Weak)” value in experiment [2] was “Strong (strong and weak inhibitors of AgAChE1 from both classes (IC50 < 1 μM and IC50 > 5 μM, respectively)”.

As for `O=C(COc1ccc(-c2ccccc2)cc1)NCCCN1CCCCC1` [AL264], the “S.R. (selectivity ratio) mAChE vs AgAChE1” value on mAChE [3] was 6. Also, the “mAChE inhibitor class (Strong/Weak)” value at mAChE [3] is “Weak (strong and weak inhibitors of AgAChE1 from both classes (IC50 < 1 μM and IC50 > 5 μM, respectively)”. Further, the “S.R. (selectivity ratio) hAChE vs AgAChE1” value in the experiment on hAChE [4] amounted to 6. For the same molecule, the figures for the IC50 (in the experiment on hAChE [5]; in experiment [1]; at mAChE [6]) were 57 µM, 10 µM and 61 µM, respectively. Moreover, the “AgAChE1 inhibitor class (Strong/Weak)” value in experiment [2] is “Weak (strong and weak inhibitors of AgAChE1 from both classes (IC50 < 1 μM and IC50 > 5 μM, respectively)”.

`CCN1CCN(C2CCN(C(=O)COc3ccc(-c4ccc(OC)cc4)cc3)CC2)CC1` [AL284]: the “S.R. (selectivity ratio) mAChE vs AgAChE1” value on mAChE [3] was found to be 73. Besides, at mAChE [3], the “mAChE inhibitor class (Strong/Weak)” value is “Weak (strong and weak inhibitors of AgAChE1 from both classes (IC50 < 1 μM and IC50 > 5 μM, respectively)”. Moreover, in the experiment on hAChE [4], the “S.R. (selectivity ratio) hAChE vs AgAChE1” value amounted to 45. Further, the concentration for half-maximal inhibition (IC50) is 18 µM in the experiment with hAChE [5], 0.4 µM in experiment [1] and 29 µM at mAChE [6]. In experiment [2], the “AgAChE1 inhibitor class (Strong/Weak)” value was “Strong (strong and weak inhibitors of AgAChE1 from both classes (IC50 < 1 μM and IC50 > 5 μM, respectively)”.

Consider `COc1ccccc1NC(=S)NCCN(C)C` [AL237], for which, at mAChE [3], it took 217 µM to reach half-maximal inhibition (IC50); the “S.R. (selectivity ratio) mAChE vs AgAChE1” value is recorded as 31; the “mAChE inhibitor class (Strong/Weak)” value was “Weak (strong and weak inhibitors of AgAChE1 from both classes (IC50 < 1 μM and IC50 > 5 μM, respectively)”. Besides, the “S.R. (selectivity ratio) hAChE vs AgAChE1” value in the experiment with hAChE [4] worked out at 17. For the same molecule, the IC50 in the experiment on hAChE [5] was 120 µM. For the same molecule, the half-inhibitory concentration (IC50) in experiment [1] is 7.1 µM. In addition, the “AgAChE1 inhibitor class (Strong/Weak)” value in experiment [2] was “Weak (strong and weak inhibitors of AgAChE1 from both classes (IC50 < 1 μM and IC50 > 5 μM, respectively)”.
